Measured values from ChEMBL document CHEMBL1121781, “Potential antitumor agents. 34. Quantitative relationships between DNA binding and molecular structure for 9-anilinoacridines substituted in the anilino ring” (J Med Chem, 1981).
The source made the active and inactive calls. The calls are words filed in the database; no cut-off is given here.

What was measured:
Nucleic Acid [1] = system: Nucleic Acid
Description: Association constant for binding to poly [d(A-T)]

Nucleic Acid [2] = system: Nucleic Acid; remark: listed apart in the source
Description: Association constant for binding to poly [d(G-C)]

Calf thymus DNA = conditions: Bos taurus
Description: Inhibitory concentration against ethidium binding to DNA

Description for Mus musculus: Maximum percent increase in life span of mice
Description for physchem: Ionisation constant (pKa)

SMILES	Log K (Nucleic Acid [1])	Log K (Nucleic Acid [2])	C50 (Calf thymus DNA) [µM]	pKa (physchem)	ILS (Mus musculus)
COc1ccccc1Nc1c2ccccc2nc2ccccc12	5.5	5.47	34	7.74	–
CCc1ccccc1Nc1c2ccccc2nc2ccccc12	5.18	5.15	83	7.68	inactive
COC(=O)Nc1ccccc1Nc1c2ccccc2nc2ccccc12	5.56	5.78	17	7.24	inactive
O=S(=O)(Nc1ccc(Nc2c3ccccc3nc3ccccc23)cc1)c1ccccc1	6.2	6.23	5.7	7.09	–
c1cncc(Nc2c3ccccc3nc3ccccc23)c1	5.75	5.96	13	6.46	inactive
Clc1ccccc1Nc1c2ccccc2nc2ccccc12	5.39	5.47	41	6.55	inactive
Oc1ccc(Nc2c3ccccc3nc3ccccc23)cc1	6.28	6.21	5.1	7.91	–
O=[N+]([O-])c1cccc(Nc2c3ccccc3nc3ccccc23)c1	5.56	5.62	27	6.26	inactive
COc1cccc(Nc2c3ccccc3nc3ccccc23)c1	5.86	5.91	14	7.21	inactive
CC(C)(C)c1ccccc1Nc1c2ccccc2nc2ccccc12	5.23	5.09	100	7.62	inactive
CS(=O)(=O)NCc1ccccc1Nc1c2ccccc2nc2ccccc12	5.6	5.39	46	7.17	inactive
Ic1ccccc1Nc1c2ccccc2nc2ccccc12	5.33	5.27	126	6.47	inactive
O=[N+]([O-])c1ccccc1Nc1c2ccccc2nc2ccccc12	5.36	5.49	36	–	inactive
O=C(Nc1ccc(Nc2c3ccccc3nc3ccccc23)cc1)c1ccccc1	6.2	6.14	5.4	7.39	–
Clc1ccc(Nc2c3ccccc3nc3ccccc23)cc1	5.99	5.91	14	7.06	inactive
CCOc1ccccc1Nc1c2ccccc2nc2ccccc12	5.2	5.08	85	7.85	inactive

SMILES	Log K (Nucleic Acid [1])	Log K (Nucleic Acid [2])	C50 (Calf thymus DNA) [µM]	pKa (physchem)	ILS (Mus musculus)
CN(c1ccc(Nc2c3ccccc3nc3ccccc23)cc1)S(C)(=O)=O	5.89	6	9.9	–	–
CS(=O)(=O)Nc1ccc(Nc2c3ccccc3nc3ccccc23)cc1	–	–	8.9	–	–
CN(c1ccccc1Nc1c2ccccc2nc2ccccc12)S(C)(=O)=O	5.08	5.46	37	6.97	inactive
CS(=O)(=O)Nc1cccc(Nc2c3ccccc3nc3ccccc23)c1	–	5.86	15	–	–
Nc1cccc(Nc2c3ccccc3nc3ccccc23)c1	6.11	6.01	8.6	7.58	–
COC(=O)c1ccc(Nc2c3ccccc3nc3ccccc23)cc1	5.88	5.86	15	–	–
Fc1ccccc1Nc1c2ccccc2nc2ccccc12	5.59	5.65	27	6.84	inactive
Clc1cccc(Nc2c3ccccc3nc3ccccc23)c1	6.02	6.02	11	6.76	inactive
Fc1ccc(Nc2c3ccccc3nc3ccccc23)cc1	5.9	5.85	16	7.5	inactive
CCCNc1ccc(Nc2c3ccccc3nc3ccccc23)cc1	6.35	6.28	2	8.25	inactive
O=[N+]([O-])c1ccc(Nc2c3ccccc3nc3ccccc23)cc1	5.48	5.69	19	–	inactive
CC(=O)c1ccc(Nc2c3ccccc3nc3ccccc23)cc1	5.87	5.89	14	6.12	inactive
CS(=O)(=O)Nc1ccccc1Nc1c2ccccc2nc2ccccc12	5.49	6.1	7.3	6.86	inactive
NC(=O)c1ccc(Nc2c3ccccc3nc3ccccc23)cc1	5.83	5.77	18	–	inactive
O=C(Nc1ccccc1)Nc1ccc(Nc2c3ccccc3nc3ccccc23)cc1	6.37	6.3	3.8	7.67	–
